Legend:
[1] = test system: Mycobacterium tuberculosis H37Rv; assay: Inhibition of Mycobacterium tuberculosis H37Rv Chorismate mutase at 30 uM relative to control
[2] = Inhibition of Mycobacterium tuberculosis H37Rv Chorismate mutase
Plasmodium berghei = assay: Antimalarial activity against liver stage of Plasmodium berghei ANKA harboring luciferase gene infected in human HepG2 cells pretreated for 1 hr followed by parasite infection measured after […] by Bright-Glo luminescence assay; format: functional, cell-based

In the case of `O=C1NC2(Cc3ccccc3C2)Nc2ccc(I)cc21`, the inhibition [1] is reported as 30 to 35%.
With `COc1cc(CCNc2c([N+](=O)[O-])cc(C(=O)O)cc2S(N)(=O)=O)cc(OC)c1` the IC50 [2] was less than 10000 nM.
Work on `CCN(CC)CCN1C(=O)c2ccccc2NC1c1ccc(Cl)cc1` (centres undefined) yielded an EC50 (Plasmodium berghei) of 1400 nM.
`O=C1NC2(CCCCCC2)Nc2ccccc21` showed an inhibition [1] of 30 to 35%.
